From US20190367516A1 (Bayer Pharma Aktiengesellschaft, priority 2015, published 2019)

Target: T1, human M2 receptor (Homo sapiens, UniProt P08172)
T1 sequence (P08172 1-466): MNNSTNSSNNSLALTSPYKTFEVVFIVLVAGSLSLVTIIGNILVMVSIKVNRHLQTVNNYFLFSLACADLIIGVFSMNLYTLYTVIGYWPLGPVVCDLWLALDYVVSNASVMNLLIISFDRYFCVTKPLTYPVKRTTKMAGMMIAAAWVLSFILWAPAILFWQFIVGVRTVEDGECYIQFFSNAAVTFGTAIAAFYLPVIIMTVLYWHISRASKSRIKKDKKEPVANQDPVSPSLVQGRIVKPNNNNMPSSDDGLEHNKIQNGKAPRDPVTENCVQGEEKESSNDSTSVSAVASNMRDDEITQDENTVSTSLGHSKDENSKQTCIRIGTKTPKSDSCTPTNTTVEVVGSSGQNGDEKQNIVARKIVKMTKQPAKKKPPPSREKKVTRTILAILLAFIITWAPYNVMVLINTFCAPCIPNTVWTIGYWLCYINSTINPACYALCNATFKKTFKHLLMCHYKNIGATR
Conditions: M2-GIRK1/4 reporter cells; for EC50: Receptor activity EC50, allosteric potency at EC20 acetylcholine, in some cases mean of two or more determinations; for Emax: read-out: Efficiency, boosting of the acetylcholine effect at EC20 acetylcholine concentration; for Efficiency: boosting of the acetylcholine effect at EC20 acetylcholine concentration

Compound | EC50 [nM] | Emax [%] | Efficiency [%]
O=C(N[C@@H](C1CC1)C(F)(F)F)c1cn(-c2c(F)cc(F)cc2Cl)c2nc(N3C[C@@H](O)[C@H](O)C3)ccc2c1=O (single isomer, unassigned) [Example 547] | 120 | 90 | –
O=C(NC(c1ccccc1Cl)C(F)(F)F)c1cn(-c2c(F)cc(F)cc2F)c2nc(N3CCNC3=O)ccc2c1=O (single isomer, unassigned) [Example 564, N-[1-(2-Chlorophenyl)-2,2,2-trifluoroethyl]-4-oxo-7-(2-oxoimidazolidin-1-yl)-1-(2,4,6-trifluorophenyl)-1,4-dihydro-1,8-naphthyridine-3-carboxamide] | 42 | 89 | –
CC[C@H](NC(=O)c1cn(-c2c(F)cc(F)cc2Cl)c2nc(N3C[C@@H](O)[C@H](O)C3)ccc2c1=O)C(F)(F)F (single isomer, unassigned) [Example 567] | 140 | 80 | –
CC(C)(CC(F)(F)F)NC(=O)c1cn(-c2c(F)cc(F)cc2F)c2nc(N3CC(O)C4(CC4)C3)ccc2c1=O (single isomer, unassigned) [Example 570, 7-[7-Hydroxy-5-azaspiro[2.4]hept-5-yl]-4-oxo-N-(4,4,4-trifluoro-2-methylbutan-2-yl)-1-(2,4,6-trifluorophenyl)-1,4-dihydro-1,8-naphthyridine-3-carboxamide] | 56 | 100 | –
O=C(N[C@@H](C1CC1)C(F)(F)F)c1cn(-c2c(F)cc(F)cc2F)c2nc(N3CC(O)C4(CC4)C3)ccc2c1=O (single isomer, unassigned) [Example 601] | 73 | 100 | –
O=C(N[C@@H](C1CC1)C(F)(F)F)c1cn(-c2c(F)cc(F)cc2F)c2nc(N3CC[C@@H](O)[C@H](O)C3)ccc2c1=O (single isomer, unassigned) [Example 616] | 37 | 90.5 | –
O=C(N[C@@H](C1CC1)C(F)(F)F)c1cn(-c2c(F)cc(F)cc2F)c2nc(N3CC[C@@H](O)[C@H](O)C3)ccc2c1=O (single isomer, unassigned) [Example 617, N-[(1 S)-1-Cyclopropyl-2,2,2-trifluoroethyl]-7-[trans-3,4-dihydroxypiperidin-1-yl]-4-oxo-1-(2,4,6-trifluorophenyl)-1,4-dihydro-1,8-naphthyridine-3-carboxamide] | 96 | – | 98.0
CC[C@H](NC(=O)c1cn(-c2c(F)cc(F)cc2F)c2nc(N3CC(O)C4(CC4)C3)ccc2c1=O)C(F)(F)F (single isomer, unassigned) [Example 620] | 47 | 100 | –
CC(NC(=O)c1cn(-c2ccc(F)cc2F)c2nc(N3C[C@@H](O)CC3=O)ccc2c1=O)C(F)(F)C(F)(F)F (single isomer, unassigned) [Example 623] | 67 | 97 | –
CC(NC(=O)c1cn(-c2ccc(F)cc2F)c2nc(N3C[C@@H](O)CC3=O)ccc2c1=O)C(F)(F)C(F)(F)F (single isomer, unassigned) [Example 624] | 140 | – | 96.5
O=C(NC12CC(C1)C2)c1cn(-c2c(F)cc(F)cc2F)c2nc(N3CC(O)C4(CC4)C3)ccc2c1=O (single isomer, unassigned) [Example 627, N-(Bicyclo[1.1.1]pent-1-yl)-7-[7-hydroxy-5-azaspiro[2.4]hept-5-yl]-4-oxo-1-(2,4,6-trifluorophenyl)-1,4-dihydro-1,8-naphthyridine-3-carboxamide] | 140 | 83.5 | –
O=C(NC12CC(C1)C2)c1cn(-c2c(F)cc(F)cc2F)c2nc(N3CC(O)C4(CC4)C3)ccc2c1=O (single isomer, unassigned) [Example 628, N-(Bicyclo[1.1.1]pent-1-yl)-7-[7-hydroxy-5-azaspiro[2.4]hept-5-yl]-4-oxo-1-(2,4,6-trifluorophenyl)-1,4-dihydro-1,8-naphthyridine-3-carboxamide] | 32 | – | –
CC1CN(c2ccc3c(=O)c(C(=O)N[C@@H](C4CC4)C(F)(F)F)cn(-c4c(F)cc(F)cc4F)c3n2)C(=O)O1 (stereo in doubt) [Example 445, N-[(1 S)-1-Cyclopropyl-2,2,2-trifluoroethyl]-7-[(5S)-5-methyl-2-oxo-1,3-oxazolidin-3-yl]-4-oxo-1-(2,4,6-trifluorophenyl)-1,4-dihydro-1,8-naphthyridine-3-carboxamide] | 96 | – | 97.5

These reach a lower EC50. Values come first.

EC50 [nM] | Emax [%] | Efficiency [%] | Compound
10 | 91 | – | O=C(NC(CC(F)(F)F)C1CC1)c1cn(-c2c(F)cc(F)cc2F)c2nc(N3C[C@@H](O)CC3=O)ccc2c1=O (single isomer, unassigned) [Example 513]
9 | – | 97.0 | CC(NC(=O)c1cn(-c2c(F)cc(F)cc2F)c2nc(N3C[C@@H](O)CC3=O)ccc2c1=O)C(F)(F)C(F)(F)F (single isomer, unassigned) [Example 531]
24 | 100 | – | O=C(NC(c1ccccc1Cl)C(F)(F)F)c1cn(-c2c(F)cc(F)cc2F)c2nc(N3C[C@@H](O)CC3=O)ccc2c1=O (single isomer, unassigned) [Example 533]
6 | – | 100.0 | O=C(NC(c1ccccc1Cl)C(F)(F)F)c1cn(-c2c(F)cc(F)cc2F)c2nc(N3C[C@@H](O)CC3=O)ccc2c1=O (single isomer, unassigned) [Example 534]
22 | – | 100.0 | CCC(NC(=O)c1cn(-c2ccc(F)cc2F)c2nc(N3C[C@@H](O)CC3=O)ccc2c1=O)C(F)(F)C(F)(F)F (single isomer, unassigned) [Example 558]
10 | – | – | O=C(NC(c1ccccc1Cl)C(F)(F)F)c1cn(-c2c(F)cc(F)cc2F)c2nc(N3CCNC3=O)ccc2c1=O (single isomer, unassigned) [Example 565, N-[1-(2-Chlorophenyl)-2,2,2-trifluoroethyl]-4-oxo-7-(2-oxoimidazolidin-1-yl)-1-(2,4,6-trifluorophenyl)-1,4-dihydro-1,8-naphthyridine-3-carboxamide]
11 | – | 100.0 | CC[C@H](NC(=O)c1cn(-c2c(F)cc(F)cc2Cl)c2nc(N3C[C@@H](O)[C@H](O)C3)ccc2c1=O)C(F)(F)F (single isomer, unassigned) [Example 568]
12 | – | – | CC(C)(CC(F)(F)F)NC(=O)c1cn(-c2c(F)cc(F)cc2F)c2nc(N3CC(O)C4(CC4)C3)ccc2c1=O (single isomer, unassigned) [Example 571, 7-[7-Hydroxy-5-azaspiro[2.4]hept-5-yl]-4-oxo-N-(4,4,4-trifluoro-2-methylbutan-2-yl)-1-(2,4,6-trifluorophenyl)-1,4-dihydro-1,8-naphthyridine-3-carboxamide]
20 | 100 | – | CCC(COC(F)(F)F)NC(=O)c1cn(-c2c(F)cc(F)cc2F)c2nc(N3C[C@@H](O)[C@H](O)C3)ccc2c1=O (single isomer, unassigned) [Example 577]
19 | 100 | – | CO[C@@H]1CN(c2ccc3c(=O)c(C(=O)N[C@@H](C4CC4)C(F)(F)F)cn(-c4c(F)cc(F)cc4F)c3n2)C[C@H]1O (single isomer, unassigned) [Example 583]
16 | – | 98.0 | CO[C@@H]1CN(c2ccc3c(=O)c(C(=O)N[C@@H](C4CC4)C(F)(F)F)cn(-c4c(F)cc(F)cc4F)c3n2)C[C@H]1O (single isomer, unassigned) [Example 584, N-[(1 S)-1-Cyclopropyl-2,2,2-trifluoroethyl]-7-[trans-3-hydroxy-4-methoxypyrrolidin-1-yl]-4-oxo-1-(2,4,6-trifluorophenyl)-1,4-dihydro-1,8-naphthyridine-3-carboxamide]
23 | – | 91.5 | O=C(N[C@@H](C1CC1)C(F)(F)F)c1cn(-c2c(F)cc(F)cc2F)c2nc(N3CC(O)C4(CC4)C3)ccc2c1=O (single isomer, unassigned) [Example 602]
22 | – | 100.0 | O=C(NC(CC(F)(F)F)C(F)(F)F)c1cn(-c2c(F)cc(F)cc2F)c2nc(N3C[C@@H](O)CC3=O)ccc2c1=O (single isomer, unassigned) [Example 608]
16 | 97.5 | – | CC1CC(=O)N(c2ccc3c(=O)c(C(=O)NC(C4CC4)C(F)(F)F)cn(-c4c(F)cc(F)cc4F)c3n2)C1 (stereo in doubt) [Example 420, N-[(1R)-1-cyclopropyl-2,2,2-trifluoroethyl]-7-[4-methyl-2-oxopyrrolidin-1-yl]-4-oxo-1-(2,4,6-trifluorophenyl)-1,4-dihydro-1,8-naphthyridine-3-carboxamide]
13 | 98.5 | – | CC(C)C(C)NC(=O)c1cn(-c2c(F)cc(F)cc2F)c2nc(N3C[C@@H](O)CC3=O)ccc2c1=O (stereo in doubt) [Example 482, 7-[(4S)-4-Hydroxy-2-oxopyrrolidin-1-yl]-N-[(2R)-3-methylbutan-2-yl]-4-oxo-1-(2,4,6-trifluorophenyl)-1,4-dihydro-1,8-naphthyridine-3-carboxamide]
